{
  "source": "paper PMC5049785",
  "about": "“Characterization of Novel Antimalarial Compound ACT-451840: Preclinical Assessment of Activity and Dose–Efficacy Modeling” (PLoS Medicine, 2016)",
  "key": {"[1]": {"tested_on": "P. falciparum V1/S (Vietnam)", "assay": "[3H]-hypoxanthine incorporation assay, V1/S", "type": "cell-based, Plasmodium falciparum", "conditions": "read-out: 50% inhibitory concentration (IC50); V1/S, resistance CQ, SUL, PYR, CYC; mean ± SD"}, "[2]": {"tested_on": "P. falciparum D6 (Sierra Leone)", "assay": "[3H]-hypoxanthine incorporation assay, D6", "type": "cell-based, Plasmodium falciparum", "conditions": "read-out: 50% inhibitory concentration (IC50); D6, resistance MFQ; mean ± SD"}, "Cam3.II^C580Y parasites": {"tested_on": "Cam3.II^C580Y parasites", "assay": "microbe, parasite or virus in culture", "type": "cell-based, P. falciparum", "procedure": "(§1) Parasites were cultured at Columbia University Medical Center (New York, USA) as previously described (1). Cam3.II and V1/S parasites, which had been genetically engineered to express K13 wild-type or K13 C580Y were seeded in a 96-well plate at 0.2% parasitemia and 1% hematocrit (2). […] Parasites were then stained with SYBR Green I (Invitrogen) and MitoTracker Deep Red (ThermoFisher Scientific) for 20 minutes at 37 °C (3). Stained parasites were detected using a BD Accuri 6 Flow Cytometer, and analyzed using FlowJo Software. IC50 values were determined by nonlinear regression using GraphPad Prism 6.0. For statistical analyses, Student’s t-tests were performed, and significance was set at P < 0.05.\n(§2) Values indicate mean ± SEM, shown in nM. Significance determined by Student's t-test against parental lines."}, "[3]": {"tested_on": "Cam3.II^rev parasites (K13 wild-type)", "assay": "microbe, parasite or virus in culture", "type": "cell-based, P. falciparum", "procedure": "as §1, §2"}, "[4]": {"tested_on": "V1/S parasites (K13 wild-type)", "assay": "microbe, parasite or virus in culture", "type": "cell-based, P. falciparum", "procedure": "as §1, §2"}, "V1/S^C580Y parasites": {"tested_on": "V1/S^C580Y parasites", "assay": "microbe, parasite or virus in culture", "type": "cell-based, P. falciparum", "procedure": "as §1, §2"}, "[5]": {"tested_on": "P. falciparum clinical isolates (Papua, Indonesia)", "assay": "Ex vivo drug susceptibility, P. falciparum clinical isolates", "type": "cell-based, Plasmodium falciparum", "conditions": "P. falciparum clinical isolates, n = 27 (closed symbols); read-out: median IC50", "procedure": "(§3) […]. Thick blood films made from each well were stained with 5% Giemsa solution for 30 min and examined microscopically. The number of schizonts per 200 asexual-stage parasites was determined for each drug concentration and normalized to the control well."}, "[6]": {"tested_on": "P. vivax clinical isolates (Papua, Indonesia)", "assay": "Ex vivo drug susceptibility, P. vivax clinical isolates", "type": "cell-based, Plasmodium vivax", "conditions": "P. vivax clinical isolates, n = 34 (open symbols); read-out: median IC50", "procedure": "as §3"}, "[7]": {"tested_on": "P. falciparum oocysts in Anopheles stephensi", "assay": "Standard membrane feeding assay, direct mode", "type": "cell-based, Plasmodium falciparum", "conditions": "compound added at the time of mosquito feeding, concentrations up to 1 μM", "procedure": "ACT-451840 was tested in the standard membrane feeding assay at TropIQ (Nijmegen, The Netherlands) in two modes, as previously described. In the direct mode, the compound was directly added to a bloodmeal containing mature stage V gametocytes that was fed to Anopheles stephensi mosquitoes. […] Seven days after the bloodmeal, the number of oocysts in the midgut was determined by microscopy for both modes. […] Vehicle control (0.1% DMSO) and positive control (10 μM dihydroartemisinin) were included. Twenty mosquitoes were dissected per sample, and oocyst load was analyzed per mosquito."}, "[8]": {"assay": "Blood concentrations in P. berghei infected mice", "type": "in vivo", "conditions": "1, 4, 24 h after first dose of triple-dose regimen", "procedure": "To assess the PK parameters in infected mice, blood samples were taken at 1, 4, and 24 h after the first dose of a triple-dose regimen in the P. berghei efficacy studies. The employed doses were 15 or 30 mg/kg bis in die (b.i.d.), and 30, 50, 100, 300 mg/kg quaque die (q.d.) (n = 3/timepoint and dose)."}, "[9]": {"assay": "Blood to plasma ratio with 14C-labeled compound", "type": "in vitro ADME", "conditions": "human fresh whole-blood, 0.5 μg/mL, 60 minutes, 37 °C", "procedure": "The blood to plasma ratio was determined using ^14C-labeled ACT-451840 at Actelion Pharmaceuticals Ltd. (Allschwil, Switzerland). For this, human fresh whole-blood was spiked with a mixture of non-labeled and ^14C-labeled ACT-451840 at a nominal concentration of 0.5 μg / mL and incubated for 60 minutes on a rotary mixer at 37 °C. Radioactivity was determined by liquid scintillation counting in whole blood and after preparation of plasma."}, "[10]": {"assay": "Effect of formulation and food on oral pharmacokinetics in dogs", "type": "in vivo", "conditions": "for AUC increase versus suspension formulation / Cmax increase versus suspension formulation: fasted dogs; for AUC0-∞ geometric mean / Cmax geometric mean: dogs, 100 mg oral, fasted"}},
  "data": [
    {"smiles": "CC(=O)N1CCN(c2ccc(CN(C(=O)/C=C/c3ccc(C(C)(C)C)cc3)[C@@H](Cc3ccccc3)C(=O)N3CCN(Cc4ccc(C#N)cc4)CC3)cc2)CC1", "note": "[ACT-451840]", "values": [
      {"measurement": "IC50", "setting": "[1]", "result": 0.3, "unit": "nM"},
      {"measurement": "IC50", "setting": "[2]", "result": "0.5 ± 0.1", "unit": "nM"},
      {"measurement": "IC50 fold change", "setting": "Cam3.II^C580Y parasites; Cam3.II^C580Y versus Cam3.II^rev", "result": 1.1},
      {"measurement": "IC50", "setting": "Cam3.II^C580Y parasites; Cam3.II^C580Y, 72 h, mean ± SEM, read-out: IC50", "result": "2.3 ± 0.6", "unit": "nM"},
      {"measurement": "IC50 fold change", "setting": "[3]; Cam3.II^rev (parental reference line)", "result": 1.0},
      {"measurement": "IC50", "setting": "[3]; Cam3.II^rev, 72 h, mean ± SEM, read-out: IC50", "result": "2.1 ± 0.3", "unit": "nM"},
      {"measurement": "IC50 fold change", "setting": "[4]; V1/S (parental reference line)", "result": 1.0},
      {"measurement": "IC50", "setting": "[4]; V1/S, 72 h, mean ± SEM, read-out: IC50", "result": "0.21 ± 0.001", "unit": "nM"},
      {"measurement": "IC50 fold change", "setting": "V1/S^C580Y parasites; V1/S^C580Y versus V1/S", "result": 0.9},
      {"measurement": "IC50", "setting": "V1/S^C580Y parasites; V1/S^C580Y, 72 h, mean ± SEM, read-out: IC50", "result": "0.19 ± 0.015", "unit": "nM"},
      {"measurement": "IC50", "setting": "[5]", "result": 2.5, "unit": "nM"},
      {"measurement": "IC50", "setting": "[6]", "result": 3, "unit": "nM"},
      {"measurement": "activity against P. falciparum oocysts", "setting": "[7]", "result": "did not show any activity"},
      {"measurement": "blood concentration in infected mice compared to healthy mice", "setting": "[8]", "result": "No significant difference"},
      {"measurement": "blood to plasma concentration ratio", "setting": "[9]", "result": 0.6},
      {"measurement": "AUC increase versus suspension formulation", "setting": "[10]; Phosal 53 MCT solution", "result": 5.0, "unit": "fold"},
      {"measurement": "Cmax increase versus suspension formulation", "setting": "[10]; Phosal 53 MCT solution", "result": 4.3, "unit": "fold"},
      {"measurement": "AUC increase versus suspension formulation", "setting": "[10]; corn oil solution", "result": 7.8, "unit": "fold"},
      {"measurement": "Cmax increase versus suspension formulation", "setting": "[10]; corn oil solution", "result": 8.1, "unit": "fold"},
      {"measurement": "AUC0-∞ geometric mean", "setting": "[10]; Phosal 53 MCT solution", "result": 597, "unit": "ng·h/mL"},
      {"measurement": "Cmax geometric mean", "setting": "[10]; Phosal 53 MCT solution", "result": 112, "unit": "ng/mL"},
      {"measurement": "AUC0-∞ geometric mean", "setting": "[10]; corn oil solution", "result": 935, "unit": "ng·h/mL"},
      {"measurement": "Cmax geometric mean", "setting": "[10]; corn oil solution", "result": 213, "unit": "ng/mL"}
    ]}
  ]
}
